From patent publication EP4635500A1, “THERAPEUTIC AGENT FOR BACTERIAL INFECTION” (Sumitomo Pharma Co., Ltd., priority 2022, dated 2024)

System: Enterobacterales
Experiment: MIC, broth microdilution, CDC/FDA Antibiotic Resistance Isolate Bank (Example 7, Tables 8, 11, 12)
Type: cell-based
[1] = carbapenemase-producing Enterobacterales, Metallo-β-lactamase (N = 47)
[2] = carbapenemase-producing Enterobacterales, Serine carbapenemase (N=61)

colistin
MIC (Enterobacter cloacae, KUB No. 5761, AR Bank # 365): 1 µg/mL
MIC (Enterobacter cloacae, KUB No. 5763, AR Bank # 367): 0.5 µg/mL
MIC (Enterobacter cloacae, KUB No. 5778, AR Bank # 432): 0.5 µg/mL
MIC (Escherichia coli, KUB No. 5545, AR Bank# 48): 0.5 µg/mL
MIC (Escherichia coli, KUB No. 5552, AR Bank# 55): 0.5 µg/mL
MIC (Escherichia coli, KUB No. 5555, AR Bank# 58): 0.5 µg/mL
MIC (Escherichia coli, KUB No. 5564, AR Bank # 67): 1 µg/mL
MIC (Escherichia coli, KUB No. 5578, AR Bank # 81): 0.5 µg/mL
MIC (Escherichia coli, KUB No. 5581, AR Bank # 84): 0.5 µg/mL
MIC (Escherichia coli, KUB No. 5586, AR Bank # 89): 0.5 µg/mL
MIC (Escherichia coli, KUB No. 5601, AR Bank # 104): 0.5 µg/mL
MIC (Escherichia coli, KUB No. 5611, AR Bank # 114): 0.5 µg/mL
MIC (Escherichia coli, KUB No. 5615, AR Bank # 118): 1 µg/mL
MIC (Escherichia coli, KUB No. 5616, AR Bank # 119): 0.5 µg/mL
MIC (Escherichia coli, KUB No. 5764, AR Bank # 368): 0.5 µg/mL
MIC (Escherichia coli, KUB No. 5765, AR Bank # 369): 0.5 µg/mL
MIC (Escherichia coli, KUB No. 5768, AR Bank # 372): 0.5 µg/mL
MIC (Escherichia coli, KUB No. 5769, AR Bank # 373): 0.5 µg/mL
MIC (Escherichia coli, KUB No. 5770, AR Bank # 374): 0.5 µg/mL
MIC (Escherichia coli, KUB No. 5780, AR Bank # 434): 0.5 µg/mL
MIC (Escherichia, KUB No. 57, AR Bank # 436 (row cut off)): 0.2 µg/mL
MIC (Klebsiella oxytoca, KUB No. 5568, AR Bank # 71): 0.5 µg/mL
MIC (Klebsiella oxytoca, KUB No. 5776, AR Bank # 380): 0.5 µg/mL
MIC (Klebsiella ozaenae, KUB No. 5548, AR Bank# 51): 0.5 µg/mL
MIC (Klebsiella ozaenae, KUB No. 5593, AR Bank # 96): 1 µg/mL
MIC (Klebsiella pneumoniae KUB No. 5784, AR Bank #438): 0.5 µg/mL
MIC (Klebsiella pneumoniae KUB No. 5797, AR Bank #453): 0.5 µg/mL
MIC (Klebsiella pneumoniae KUB No. 5809, AR Bank #504): 1 µg/mL
MIC (Klebsiella pneumoniae KUB No. 5810, AR Bank #505): 1 µg/mL
MIC (Klebsiella pneumoniae KUB No. 5811, AR Bank #506): 0.5 µg/mL
MIC (Klebsiella pneumoniae KUB No. 5812, AR Bank #507): 8 µg/mL
MIC (Klebsiella pneumoniae KUB No. 5827, AR Bank #522): 32 µg/mL
MIC (Klebsiella pneumoniae KUB No. 5828, AR Bank #523): 4 µg/mL
MIC (Klebsiella pneumoniae KUB No. 5829, AR Bank #524): 2 µg/mL
MIC (Klebsiella pneumoniae KUB No. 5830, AR Bank #525): 16 µg/mL
MIC (Klebsiella pneumoniae, KUB No. 55, AR Bank# 47): 64 µg/mL
MIC (Klebsiella pneumoniae, KUB No. 5531, AR Bank# 34): 0.5 µg/mL
MIC (Klebsiella pneumoniae, KUB No. 5536, AR Bank# 39): 0.5 µg/mL
MIC (Klebsiella pneumoniae, KUB No. 5537, AR Bank# 40): 4 µg/mL
MIC (Klebsiella pneumoniae, KUB No. 5543, AR Bank# 46): 4 µg/mL
MIC (Klebsiella pneumoniae, KUB No. 5546, AR Bank# 49): 0.5 µg/mL
MIC (Klebsiella pneumoniae, KUB No. 5563, AR Bank # 66): 0.5 µg/mL
MIC (Klebsiella pneumoniae, KUB No. 5565, AR Bank # 68): 1 µg/mL
MIC (Klebsiella pneumoniae, KUB No. 5572, AR Bank # 75): 0.5 µg/mL
MIC (Klebsiella pneumoniae, KUB No. 5577, AR Bank # 80): 0.5 µg/mL
MIC (Klebsiella pneumoniae, KUB No. 5584, AR Bank # 87): 64 µg/mL
MIC (Klebsiella pneumoniae, KUB No. 5594, AR Bank # 97): 8 µg/mL
MIC (Klebsiella pneumoniae, KUB No. 5603, AR Bank # 106): 32 µg/mL
MIC (Klebsiella pneumoniae, KUB No. 5604, AR Bank # 107): 0.5 µg/mL
MIC (Klebsiella pneumoniae, KUB No. 5606, AR Bank # 109): 32 µg/mL
MIC (Klebsiella pneumoniae, KUB No. 5609, AR Bank # 112): 0.5 µg/mL
MIC (Klebsiella pneumoniae, KUB No. 5610, AR Bank # 113): 0.5 µg/mL
MIC (Klebsiella pneumoniae, KUB No. 5612, AR Bank # 115): 1 µg/mL
MIC (Klebsiella pneumoniae, KUB No. 5614, AR Bank # 117): 1 µg/mL
MIC (Klebsiella pneumoniae, KUB No. 5617, AR Bank # 120): 1 µg/mL
MIC (Klebsiella pneumoniae, KUB No. 5622, AR Bank # 125): 16 µg/mL
MIC (Klebsiella pneumoniae, KUB No. 5626, AR Bank # 129): 0.5 µg/mL
MIC (Klebsiella pneumoniae, KUB No. 5757, AR Bank # 361): 0.5 µg/mL
MIC (Klebsiella pneumoniae, KUB No. 5759, AR Bank # 363): 0.5 µg/mL
MIC (Klebsiella pneumoniae, KUB No. 5760, AR Bank # 364): 64 µg/mL
MIC (Klebsiella pneumoniae, KUB No. 5772, AR Bank # 376): 0.5 µg/mL
MIC (Proteus mirabilis, KUB No. 5775, AR Bank # 379): 64 µg/mL
MIC (Raoultella ornithinolvtica, KUB No. 5631, AR Bank # 134): 8 µg/mL
MIC (Salmonella Senftenberg, KUB No. 5624, AR Bank # 127): 0.5 µg/mL
MIC50 [1]: 0.5 µg/mL
MIC90 [1]: 8 µg/mL
MIC50 [2]: 0.5 µg/mL
MIC90 [2]: >64 µg/mL
MIC90 (metallo-β-lactamase-producing strains of Enterobacterales): 8 µg/mL
